# Source: patent US10294207B2, “Pyrazole derivatives as TNIK, IKKϵ and TBK1 inhibitor and pharmaceutical composition comprising same” (GREEN CROSS CORPORATION, priority 2015, dated 2019)
# Columns and labels:
# TBK1 = molecular target: T1, TBK1 (Homo sapiens, UniProt Q9UHD2); test: TBK1 inhibition, ADP-Glo Kinase Assay; assay type: biochemical; settings: luminometer
# T1 construct: purchased Promega V3991
# T1 sequence (Q9UHD2 1-729): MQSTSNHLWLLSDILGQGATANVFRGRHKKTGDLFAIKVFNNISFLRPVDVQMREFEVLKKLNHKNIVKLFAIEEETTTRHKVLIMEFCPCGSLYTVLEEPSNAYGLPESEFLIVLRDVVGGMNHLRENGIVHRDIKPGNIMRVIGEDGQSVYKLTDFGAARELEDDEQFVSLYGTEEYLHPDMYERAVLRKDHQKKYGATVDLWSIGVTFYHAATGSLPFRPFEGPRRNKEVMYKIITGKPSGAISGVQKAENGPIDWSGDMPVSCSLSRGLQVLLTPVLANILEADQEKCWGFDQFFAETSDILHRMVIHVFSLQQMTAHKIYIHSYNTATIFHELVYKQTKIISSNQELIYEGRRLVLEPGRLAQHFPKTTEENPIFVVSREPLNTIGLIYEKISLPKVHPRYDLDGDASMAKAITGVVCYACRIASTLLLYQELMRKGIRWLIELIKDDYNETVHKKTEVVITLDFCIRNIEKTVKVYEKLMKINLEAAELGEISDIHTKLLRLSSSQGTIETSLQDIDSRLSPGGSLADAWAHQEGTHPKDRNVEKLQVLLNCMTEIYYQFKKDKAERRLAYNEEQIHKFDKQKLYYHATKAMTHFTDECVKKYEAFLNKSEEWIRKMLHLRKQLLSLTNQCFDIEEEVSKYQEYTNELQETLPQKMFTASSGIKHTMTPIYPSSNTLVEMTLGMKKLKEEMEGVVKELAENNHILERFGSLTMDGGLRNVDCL
# How it was run: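 ADP-Glo luminescence reported ADP produced by each kinase, following the kit protocol. Reactions used commercial kinase enzyme systems in buffer of 40 mM Tris (pH 7.5), 20 mM MgCl2 and 0.1 mg/mL BSA.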
# IKKε = molecular target: T2, IKKε (Homo sapiens, UniProt Q14164); test: IKKε inhibition, ADP-Glo Kinase Assay; assay type: biochemical; settings: luminometer
# T2 construct: purchased Invitrogen PR8031B
# T2 sequence (Q14164 1-716): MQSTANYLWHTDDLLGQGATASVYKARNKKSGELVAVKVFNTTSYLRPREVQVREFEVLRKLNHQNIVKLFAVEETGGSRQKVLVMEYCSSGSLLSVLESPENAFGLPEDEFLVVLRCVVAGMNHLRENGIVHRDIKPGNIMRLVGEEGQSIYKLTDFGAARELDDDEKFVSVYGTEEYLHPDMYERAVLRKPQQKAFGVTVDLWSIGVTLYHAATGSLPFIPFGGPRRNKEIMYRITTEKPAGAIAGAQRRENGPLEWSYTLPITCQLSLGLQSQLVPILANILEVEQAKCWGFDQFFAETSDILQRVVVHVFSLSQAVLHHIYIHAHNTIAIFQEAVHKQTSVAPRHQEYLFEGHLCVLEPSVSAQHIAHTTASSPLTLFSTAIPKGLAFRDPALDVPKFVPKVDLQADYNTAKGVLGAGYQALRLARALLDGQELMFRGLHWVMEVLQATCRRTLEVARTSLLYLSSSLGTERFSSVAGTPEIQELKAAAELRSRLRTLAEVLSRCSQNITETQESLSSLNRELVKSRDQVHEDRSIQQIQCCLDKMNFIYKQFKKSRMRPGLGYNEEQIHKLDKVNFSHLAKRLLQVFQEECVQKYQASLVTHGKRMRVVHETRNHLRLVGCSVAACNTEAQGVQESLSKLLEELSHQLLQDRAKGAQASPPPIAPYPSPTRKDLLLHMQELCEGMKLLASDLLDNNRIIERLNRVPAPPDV
# Description: Inhibition activities on TNIK, IKKε and TBK1 were evaluated using the compounds of Examples 1 to 254.
# The inhibition activities on TNIK, IKKε and TBK1 were measured by a luminometer, TNIK/IKKε/TBK1 Kinase Enzyme System (Promega, Ca# V4158; Invitrogen, PR8031B, Promega, Ca# V3991) and ADP-Glo Kinase Assay using ADP-Glo™ Kinase Analysis Kit (Promega, Ca# V9101) and a kinase reaction buffer [40 mM Tris(pH 7.5), 20 mM MgCl2, 0.1 mg/mL BSA] in accordance with the manufacturer's protocol.
IC50 (TBK1) [µM],IC50 (IKKε) [µM],SMILES
0.0046,0.016,"C[C@H]1CN(c2ccc(C(=O)Nc3n[nH]c4ccc(C(=O)NC5(c6ccccc6)CC5)cc34)cc2)CCN1 [Example 76, (S)-3-(4-(3-Methylpiperazin-1-yl)benzamido)-N-(1-phenylcyclopropyl)-1H-indazole-5-carboxamide]"
0.0048,0.018,"C[C@@H]1CN(c2ccc(C(=O)Nc3n[nH]c4ccc(C(=O)NC5(c6ccccc6)CC5)cc34)cc2)CCN1 [Example 77, (R)-3-(4-(3-Methylpiperazin-1-yl)benzamido)-N-(1-phenylcyclopropyl)-1H-indazole-5-carboxamide]"
0.037,0.2,"Cc1cc(C(=O)Nc2n[nH]c3ccc(C(=O)NCc4cccs4)cc23)ccc1N1CCOCC1 [Example 78, 3-(3-Methyl-4-morpholinobenzamido)-N-(thiophen-2-ylmethyl)-1H-indazole-5-carboxamide]"
0.015,0.22,"Cc1cc(C(=O)Nc2n[nH]c3ccc(C(=O)NCc4cccs4)cc23)ccc1N1CCN(C)CC1 [Example 79, 3-(3-Methyl-4-(4-methylpiperazin-1-yl)benzamido)-N-(thiophen-2-ylmethyl)-1H-indazole-5-carboxamide]"
0.0025,0.0074,"CC(NC(=O)c1ccc2[nH]nc(NC(=O)c3ccc(N4CCN(C)CC4)cc3)c2c1)c1ccsc1 (stereo not shown) [Example 80, 3-(4-(4-Methylpiperazin-1-yl)benzamido)-N-(1-(thiophen-3-yl)ethyl)-1H-indazole-5-carboxamide]"
0.0039,0.021,"CC(NC(=O)c1ccc2[nH]nc(NC(=O)c3ccc(N4CCN(C)CC4)cc3)c2c1)c1ccco1 (stereo not shown) [Example 81, N-(1-(Furan-2-yl)ethyl)-3-(4-(4-methylpiperazin-1-yl)benzamido)-1H-indazole-5-carboxamide]"
0.014,0.074,"CC(NC(=O)c1ccc2[nH]nc(NC(=O)c3ccc(N4CCN(C)CC4)cc3)c2c1)c1nccs1 (stereo not shown) [Example 82, 3-(4-(4-Methylpiperazin-1-yl)benzamido)-N-(1-(thiazol-2-yl)ethyl)-1H-indazole-5-carboxamide]"
0.011,0.047,"CC(NC(=O)c1ccc2[nH]nc(NC(=O)c3ccc(N4CCN(C)CC4)cc3)c2c1)c1cncs1 (stereo not shown) [Example 83, 3-(4-(4-Methylpiperazin-1-yl)benzamido)-N-(1-(thiazol-5-yl)ethyl)-1H-indazole-5-carboxamide]"
0.016,0.069,"CCC(NC(=O)c1ccc2[nH]nc(NC(=O)c3ccc(N4CCN(C)CC4)cc3)c2c1)c1nccs1 (stereo not shown) [Example 84, 3-(4-(4-Methylpiperazin-1-yl)benzamido)-N-(1-(thiazol-2-yl)propyl)-1H-indazole-5-carboxamide]"
0.16,1.63,"CN1CCN(c2ccc(C(=O)Nc3n[nH]c4ccc(C(=O)NCc5ccccn5)cc34)cc2)CC1 [Example 85, 3-(4-(4-Methylpiperazin-1-yl)benzamido)-N-(pyridin-2-ylmethyl)-1H-indazole-5-carboxamide bis(2,2,2-trifluoroacetate)]"
0.089,0.45,"O=C(NCc1ccccn1)c1ccc2[nH]nc(NC(=O)c3ccc(N4CCOCC4)cc3)c2c1 [Example 86, 3-(4-Morpholinobenzamido)-N-(pyridin-2-ylmethyl)-1H-indazole-5-carboxamide]"
0.018,0.072,"CN1CCN(c2ccc(C(=O)Nc3n[nH]c4ccc(C(=O)NCC5CCCCC5)cc34)cc2)CC1 [Example 87, N-(Cyclohexylmethyl)-3-(4-(4-methylpiperazin-1-yl)benzamido)-1H-indazole-5-carboxamide]"
0.02,0.11,"O=C(NCC1CCCCC1)c1ccc2[nH]nc(NC(=O)c3ccc(N4CCOCC4)cc3)c2c1 [Example 88, N-(Cyclohexylmethyl)-3-(4-morpholinobenzamido)-1H-indazole-5-carboxamide]"
0.0056,0.079,"CC1CN(c2ccc(C(=O)Nc3n[nH]c4ccc(C(=O)NCc5cccs5)cc34)cc2)CC(C)N1 (stereo not shown) [Example 89, 3-(4-(3,5-Dimethylpiperazin-1-yl)benzamido)-N-(thiophen-2-ylmethyl)-1H-indazole-5-carboxamide 2,2,2-trifluoroacetate]"
0.013,0.21,"CN1CCN(c2ccc(C(=O)Nc3n[nH]c4ccc(C(=O)NCC5CCCC5)cc34)cc2)CC1 [Example 90, N-(Cyclopentylmethyl)-3-(4-(4-methylpiperazin-1-yl)benzamido)-1H-indazole-5-carboxamide 2,2,2-trifluoroacetate]"
0.0053,0.093,"O=C(NCC1CCCC1)c1ccc2[nH]nc(NC(=O)c3ccc(N4CCOCC4)cc3)c2c1 [Example 91, N-(Cyclopentylmethyl)-3-(4-morpholinobenzamido)-1H-indazole-5-carboxamide 2,2,2-trifluoroacetate]"
0.007,0.065,"CC1CN(c2ccc(C(=O)Nc3n[nH]c4ccc(C(=O)NCc5cccs5)cc34)cc2)CC(C)O1 (stereo not shown) [Example 92, 3-(4-(2,6-Dimethylmorpholino)benzamido)-N-(thiophen-2-ylmethyl)-1H-indazole-5-carboxamide 2,2,2-trifluoroacetate]"
0.19,1.04,"CC(CCO)NC(=O)c1ccc2[nH]nc(NC(=O)c3ccc(N4CCN(C)CC4)cc3)c2c1 (stereo not shown) [Example 93, N-(4-Hydroxybutan-2-yl)-3-(4-(4-methylpiperazin-1-yl)benzamido)-1H-indazole-5-carboxamide]"
0.24,1.59,"CN1CCN(c2ccc(C(=O)Nc3n[nH]c4ccc(C(=O)NCc5c[nH]nn5)cc34)cc2)CC1 [Example 94, N-((1H-1,2,3-Triazol-4-yl)methyl)-3-(4-(4-methylpiperazin-1-yl)benzamido)-1H-indazole-5-carboxamide]"
0.0028,0.021,"CCC(NC(=O)c1ccc2[nH]nc(NC(=O)c3ccc(N4CC(C)NC(C)C4)cc3)c2c1)c1cccs1 (stereo not shown) [Example 95, 3-(4-(3,5-dimethylpiperazin-1-yl)benzamido)-N-(1-(thiophen-2-yl)propyl)-1H-indazole-5-carboxamide 2,2,2-trifluoroacetate]"
0.0051,0.047,"CCC(NC(=O)c1ccc2[nH]nc(NC(=O)c3ccc(N4CC(C)OC(C)C4)cc3)c2c1)c1cccs1 (stereo not shown) [Example 96, 3-(4-(2,6-Dimethylmorpholino)benzamido)-N-(1-(thiophen-2-yl)propyl)-1H-indazole-5-carboxamide 2,2,2-trifluoroacetate]"
0.0028,0.016,"CCC(NC(=O)c1ccc2[nH]nc(NC(=O)c3ccc(N4CCN[C@@H](C)C4)cc3)c2c1)c1cccs1 (stereo partly drawn) [Example 97, 3-(4-((S)-3-Methylpiperazin-1-yl)benzamido)-N-(1-(thiophen-2-yl)propyl)-1H-indazole-5-carboxamide 2,2,2-trifluoroacetate]"
0.003,0.023,"CCC(NC(=O)c1ccc2[nH]nc(NC(=O)c3ccc(N4CCN[C@H](C)C4)cc3)c2c1)c1cccs1 (stereo partly drawn) [Example 98, 3-(4-((R)-3-Methylpiperazin-1-yl)benzamido)-N-(1-(thiophen-2-yl)propyl)-1H-indazole-5-carboxamide 2,2,2-trifluoroacetate]"
